How the values were obtained:
Format in all cases: cell-based, human
HeLa cells [1] = assay: Microtubule stability against Colcemid in HeLa cells (immunofluorescence); details: pretreated (1 μM 16 hours, or 200 nM oligonucleotide 24 hours), then 1 μM Colcemid 15 minutes, FIG. 11
Procedure: (3) the introduction of HDAC6 antisense oligonucleotide No. 16 at a final concentration of 200 nM with OligofectAMINE followed by a 24-hour culture.
Then, Lab-TekII Chambered Coverglass was washed with 0.1 M PIPES (pH 6.9), the cells were fixed in 0.5% glutaraldehyde/0.1 PIPES (pH 6.9) for 10 minutes, washed three times with PBS, permealized three times with 0.5% Triton X100/PBS for 5 minutes each, washed three times with PBS, treated three times with 2.5 mg/ml sodium borohydride/50% ethanol for 10 minutes each, washed three times with PBS, blocked with 10% normal goat serum/PBS, reacted with a primary antibody rat anti-α-tubulin monoclonal antibody (MAB1864; CHEMICON)/PBS for 1 hour, washed three times with 0.1% Tween 20/PBS, reacted with a second antibody Alexa Fluor 488-conjugated anti-rat IgG (Molecular Probe)/PBS for 30 minutes, and washed three times with 0.1% Tween 20/PBS, and then examined under a conforcal laser scanning microscope (Carl Zeiss).

HeLa cells [2] = assay: Changes in microtubule structure in HeLa cells (immunofluorescence, confocal microscopy); details: FIG. 5
Procedure: HeLa cells were plated on the Lab-TekII Chambered Coverglass (Nunc), and were subjected to:
(1) treatment for 16 hours with 1 μM Paclitaxel (Sigma), a microtubule polymerizing agent;
(3) the introduction of HDAC6 antisense oligonucleotide No. 4 at a final concentration of 200 nM with OligofectAMINE followed by a 24-hour culture.
Then, Lab-TekII Chambered Coverglass was washed with 0.1 M PIPES (pH 6.9), the cells were fixed in 0.5% glutaraldehyde/0.1 M PIPES (pH 6.9) for 10 minutes, washed three times with PBS, permealized three times with 0.5% Triton X100/PBS for 5 minutes each, washed three times with PBS, treated three times with 2.5 mg/ml sodium borohydride/50% ethanol for 10 minutes each, washed three times with PBS, blocked with 10% normal goat serum/PBS, reacted with a primary antibody (a) anti-acetylated α-tubulin antibody (clone 6-11B-1, Sigma) or (b) anti-α-tubulin antibody (clone DM lA, Sigma)/PBS for 1 hour, washed three times with 0.1% Tween 20/PBS, reacted with a second antibody Alexa Fluor 488-conjugated anti-mouse IgG (Molecular Probe)/PBS for 30 minutes, and washed three times with 0.1% Tween 20/PBS, and then examined under a conforcal laser scanning microscope (Carl Zeiss).

HeLa cells [3] = assay: Depolarization of mitochondrial membrane potential in HeLa cells (JC-1, FACS); details: 200 nM, 24, 36 or 48 hours, FIG. 7
Procedure: HeLa cells (1.5×10^5/well) were plated into a 6-well plate with MEM medium containing 10% FCS and 1× nonessential amino acids. HDAC6 antisense oligonucleotide No. 4, 5 or 16 at the final concentration of 200 nM or the control oligonucleotide was introduced into the cells with OligofectAMINE at 3 μl/well, and the cells were treated for 24 hours, 36 hours or 48 hours. Mitochondrial potential sensor JC-1 (Molecular Probes) was added to the medium at the final concentration of 10 μg/ml and the cells were further caltivated at 37° C. for 10 minutes. Ten minutes later, the cells were detached by trypsin treatment and collected, and analyzed using the FACS caliber (Becton Dickinson).
Therefore, in order to detect the cells in which mitochondrial membrane potential is depolarized, the ratio of green fluorescence-positive cells was graphically shown and used as an index of apoptosis.

acetylated α-tubulin = assay: Acetylation of α-tubulin in HeLa cells (Western blot); details: 200 nM, 24, 30, 36 and 48 hours, FIG. 4
Procedure: The each synthesized antisense oligonucleotide was dissolved in sterile water, and was introduced into HeLa cells using the OligofectAMINE (Invitrogen) according to an attached protocol. The 1.5×10^5 HeLa cells were plated in a 6-well plate, the final concentration of antisense oligonucleotide was set at 200 nM, and OligofectAMINE was used at 3 μl/well.
[…] After the cells were lysed with a SDS-PAGE sample buffer (BPB-free) and protein concentration was determined, the cell lysate at 25 μg/lane was separated by SDS-PAGE, transferred to a PVDF membrane, and immunoblotted with anti-acetylated α-tubulin antibody (clone 6-11B-1, Sigma), anti-α-tubulin antibody (clone DMlA, Sigma) or anti-HDAC6 antibody (H-300, Santa Cruz).

HeLa cells [4] = assay: Induction of apoptosis in HeLa cells (Annexin V-PE, FACS); details: 200 nM, 24 to 48 hours, FIG. 6
Procedure: HeLa cells (1.5×10^5/well) were plated into a 6-well plate with MEM medium containing 10% FCS and 1× nonessential amino acids. HDAC6 antisense oligonucleotide No. 4, 5, 6 or 16 at the final concentration of 200 nM or the control oligonucleotide was introduced into the cells with OligofectAMINE at 3 μl/well, and the cells were treated for 24 hours, 30 hours, 36 hours, or 48 hours. The cells were detached by trypsin treatment and collected, and stained with Annexin V-PE (Becton Dickinson) according to a protocol attached, and analyzed using the FACS caliber (Becton Dickinson).
Thus, the collected cells were washed with PBS, suspended in 100 μl of the binding buffer (Becton Dickinson), to which suspension 5 μl of Annexin V-PE was added and incubated for 15 minutes, and the binding buffer was added to make a total volume of 500 μl. This was subjected to FACS analysis.

HDAC6 [5] = assay: Suppression of HDAC6 protein expression in HeLa cells (Western blot); details: for production of HDAC6, changing treatment time: 200 nM, 24, 30, 36 and 48 hours, FIG. 4
HDAC6 [6] = assay: Suppression of HDAC6 protein expression in HepG2, SW480, LoVo and Calu-1 cells (Western blot); details: HepG2, SW480, LoVo, Calu-1 cells; 200 nM, 48 hours; FIG. 8

CC(=O)O[C@H]1C(=O)[C@@]2(C)[C@H]([C@H](OC(=O)c3ccccc3)[C@]3(O)C[C@H](OC(=O)[C@H](O)[C@@H](NC(=O)c4ccccc4)c4ccccc4)C(C)=C1C3(C)C)[C@]1(OC(C)=O)CO[C@@H]1C[C@@H]2O [Paclitaxel]
microtubules after Colcemid in pretreated cells (HeLa cells [1]): the remaining of the polymerized microtubules was observed | microtubule structure, stained with anti-acetylated α-tubulin antibody (HeLa cells [2]; 1 μM, 16 hours): hyperpolymerized microtubules from the centromere were observed | microtubule structure, stained with anti-α-tubulin antibody (HeLa cells [2]; 1 μM, 16 hours): hyperpolymerized microtubules were observed in the periphery of the nucleus

CC(/C=C/C(=O)NO)=C\[C@@H](C)C(=O)c1ccc(N(C)C)cc1 [Trichostatin A]
microtubules after Colcemid in pretreated cells (HeLa cells [1]): the remaining of the polymerized microtubules was observed | microtubule structure (HeLa cells [2]; 1 μM Trichostatin A 16 hours or 200 nM antisense oligonucleotide 24 hours): images of polymerized microtubules were observed throughout the cytoplasm

antisense oligonucleotide 5: phosphorothioated HDAC6 antisense oligonucleotide GCTGCCTGGT TGTGGTGGAA, complementary to a sequence downstream of ATG (antisense GCTGCCTGGTTGTGGTGGAA; all phosphorothioate, sugars by position and methylation of C not given here)
mitochondrial depolarization judged by JC-1 staining (HeLa cells [3]): induces mitochondrial depolarization | acetylation of α-tubulin, changing treatment time (acetylated α-tubulin): the acetylation of α-tubulin was enhanced at any time | apoptosis judged by Annexin V positivity (HeLa cells [4]): induces apoptosis | production of HDAC6, changing treatment time (HDAC6 [5]): inhibits the production of HDAC6

antisense oligonucleotide 6: phosphorothioated HDAC6 antisense oligonucleotide TTTATTACAT ATGCAACCTT, upstream sequence comprising the polyadenylation signal; used as negative control (antisense TTTATTACATATGCAACCTT; all phosphorothioate, sugars by position and methylation of C not given here)
acetylation of α-tubulin, changing treatment time (acetylated α-tubulin): enhances the acetylation of α-tubulin | production of HDAC6, changing treatment time (HDAC6 [5]): inhibits the production of HDAC6

control oligo: control oligonucleotide CCTCTTACCT CAGTTACAAT, from abnormal splicing site 705 of β globin pre-mRNA; no specific target in normal cells (antisense CCTCTTACCTCAGTTACAAT; all phosphorothioate, sugars by position and methylation of C not given here)
amount of expressed HDAC6 protein (HDAC6 [5]; 200 nM oligonucleotide, 48 hours after introduction, FIG. 3): did not have any activity of causing the reduction of HDAC6 protein expression | amount of expressed HDAC6 (HDAC6 [6]): did not have any activity of causing the reduction of HDAC6 protein expression

— patent US20080213813A1, “Histone deacetylase inhibitor and use thereof” (priority 2002, published 2008)
